From patent publication EP1914304A1 (priority 1998, dated 1999)

Key:
[1] = target: HSV-1 thymidine kinase mutant TKF 105 (Leu-170 to Ile) (Human herpesvirus 1, UniProt P06478, L170I); assay: Kinetics of AZT phosphorylation by purified TK (preliminary experiments); format: biochemical, Herpes Simplex Virus Type 1; settings: preliminary experiments with purified TKF 105 TK
Experimental: Briefly, crude bacterial extract was passed three times through a 7-mL bed-volume affinity column. The column was then washed sequentially using 30 mL each of buffer A [0.1 M Tris HCl, pH 7.5/5 mM dithiothreitol (DTT)/10% glycerol], buffer B (0.1M Tris-HCl, pH 7.5/0.5 M KCl/5 mM DTT/10% glycerol), and buffer A. TK was eluted using a 60-mL linear gradient of 0-600 µM dT in buffer C (0.3 M Tris HCl, pH 7.4/50 mM KCl/10% glycerol). Active fractions were pooled and dialyzed against three changes each of 2 liters of 50 mM Tris-HCl, pH 7.4/5 mM DTT/10% glycerol. Except in the final dialysis, all the above buffers contained 50 µg/mL of aprotinin and 2 µg/mL each of pepstatin and leupeptin.
Secondly, the kinetics of AZT phosphorylation by the two mutants was determined. Briefly, reactions were carried out in a final volume of 100 µl containing 50 mM Tris-HCl (pH 7.5), 5 mM ATP. […] The amount of radioactivity adsorbed to the disc was determined by scintillation spectroscopy. Km and Vmax values were determined by using the Cleland SUBIN program (Cleland, Methods Enz. 63:103-138, 1979). The values for kcat were calculated using the equation Vmax = kcat[E]0, where [E]o = total enzyme concentration. […]

[2] = tested on: E. coli KY895 harboring HSV-1 TK mutant F1611/R163H; assay: Colony formation on acyclovir or AZT plates (secondary screen); format: cell-based; design: key: (++) indicates that the same number of colonies were observed as compared to control plates; (+) indicates that fewer (<20% those observed with pMCC) and generally smaller (~50°,% smaller diameter) colonies were observed as compared to control plates; (-) indicates that no colonies were observed; settings: TK selection plates, 1 µg/mL thymidine + 1µg/mL acyclovir or 0.05 µg/mL AZT, 37°C, 16-24 hours
Experimental: (§1) […]. Mutant cultures were also spread onto duplicate TK selection and LB + carb^50 plates. One set of TK selection plates and LB + carb^50 plates were incubated at 42°C. All other plates were incubated at 37°C. After 16-24 hours the plates were scored.

[3] = tested on: E. coli KY895 harboring HSV-1 TK mutant F161C; assay: as above; format: cell-based; design: key: (++) indicates that the same number of colonies were observed as compared to control plates; (+) indicates that fewer (<20% those observed with pMCC) and generally smaller (~50°,% smaller diameter) colonies were observed as compared to control plates; (-) indicates that no colonies were observed; settings: TK selection plates, 1 µg/mL thymidine + 1µg/mL acyclovir or 0.05 µg/mL AZT, 37°C, 16-24 hours
Experimental: as §1

[4] = tested on: E. coli KY895 harboring HSV-1 TK mutant F161L; assay: as above; format: cell-based; design: key: (++) indicates that the same number of colonies were observed as compared to control plates; (+) indicates that fewer (<20% those observed with pMCC) and generally smaller (~50°,% smaller diameter) colonies were observed as compared to control plates; (-) indicates that no colonies were observed; settings: TK selection plates, 1 µg/mL thymidine + 1µg/mL acyclovir or 0.05 µg/mL AZT, 37°C, 16-24 hours
Experimental: as §1

[5] = tested on: E. coli KY895 harboring HSV-1 TK mutant P155A/F161V; assay: as above; format: cell-based; design: key: (++) indicates that the same number of colonies were observed as compared to control plates; (+) indicates that fewer (<20% those observed with pMCC) and generally smaller (~50°,% smaller diameter) colonies were observed as compared to control plates; (-) indicates that no colonies were observed; settings: TK selection plates, 1 µg/mL thymidine + 1µg/mL acyclovir or 0.05 µg/mL AZT, 37°C, 16-24 hours
Experimental: as §1

[6] = tested on: E. coli KY895 harboring pMCC (wild-type HSV-1 TK); assay: as above; format: cell-based; design: key: (++) indicates that the same number of colonies were observed as compared to control plates; (+) indicates that fewer (<20% those observed with pMCC) and generally smaller (~50°,% smaller diameter) colonies were observed as compared to control plates; (-) indicates that no colonies were observed; settings: TK selection plates, 1 µg/mL thymidine + 1µg/mL acyclovir or 0.05 µg/mL AZT, 37°C, 16-24 hours
Experimental: as §1

[7] = tested on: E. coli KY895 harboring HSV-1 TK mutant F1611; assay: as above; format: cell-based; settings: TK selection plates, 1 µg/mL thymidine + 1µg/mL acyclovir or 0.05 µg/mL AZT, 37°C, 16-24 hours
Experimental: as §1

[8] = tested on: E. coli KY895 harboring HSV-1 TK mutant R163P/H164Q; assay: as above; format: cell-based; settings: TK selection plates, 1 µg/mL thymidine + 1µg/mL acyclovir or 0.05 µg/mL AZT, 37°C, 16-24 hours
Experimental: as §1

[9] = tested on: Rat C6 cells expressing TK mutant 30; assay: Rat C6 kill curves with GCV and ACV; format: cell-based; settings: Table VIII
Source text: (§2) The seven mutants were subcloned into the mammalian expression vector, pREP8D7:dualGFP. This vector contains a constitutive metallothionin promoter, which drives the expression of green flourescent protein (GFP), and an RSV LTR promoter, which stimulated expression of the TK mutants. The vector also contains a histidinol resistance gene for selection of transformants. Purified vector DNA of these constructs was used to transfect BHK tk- cells by electroporation. The transfectants were selected by resistance to histidinol and sorted using FACS analysis for GFP expression. Pools of transfectants were then assayed for sensitivity to GCV or ACV over a range of prodrug doses. […] Table VIII illustrates the IC50 values from Rat C6 kill curves with the SR11, SR26, and SR39 mutants.

[10] = tested on: Rat C6 cells expressing TK mutant 411; assay: Rat C6 kill curves with GCV and ACV; format: cell-based; settings: Table VIII
Source text: as §2

[11] = tested on: Rat C6 cells expressing TK mutant 75; assay: Rat C6 kill curves with GCV and ACV; format: cell-based; settings: Table VIII
Source text: as §2

[12] = tested on: Rat C6 cells expressing TK mutant SR11; assay: Rat C6 kill curves with GCV and ACV; format: cell-based; settings: Table VIII
Source text: as §2

[13] = tested on: Rat C6 cells expressing TK mutant SR26; assay: Rat C6 kill curves with GCV and ACV; format: cell-based; settings: Table VIII
Source text: as §2

[14] = tested on: Rat C6 cells expressing TK mutant SR39; assay: Rat C6 kill curves with GCV and ACV; format: cell-based; settings: Table VIII
Source text: as §2

[15] = tested on: Rat C6 cells expressing wild-type TK; assay: Rat C6 kill curves with GCV and ACV; format: cell-based; settings: Table VIII
Source text: as §2

HSV-1 thymidine kinase mutant TKF 105 (Leu-170 to Ile), sequence (P06478 whole entry L170I): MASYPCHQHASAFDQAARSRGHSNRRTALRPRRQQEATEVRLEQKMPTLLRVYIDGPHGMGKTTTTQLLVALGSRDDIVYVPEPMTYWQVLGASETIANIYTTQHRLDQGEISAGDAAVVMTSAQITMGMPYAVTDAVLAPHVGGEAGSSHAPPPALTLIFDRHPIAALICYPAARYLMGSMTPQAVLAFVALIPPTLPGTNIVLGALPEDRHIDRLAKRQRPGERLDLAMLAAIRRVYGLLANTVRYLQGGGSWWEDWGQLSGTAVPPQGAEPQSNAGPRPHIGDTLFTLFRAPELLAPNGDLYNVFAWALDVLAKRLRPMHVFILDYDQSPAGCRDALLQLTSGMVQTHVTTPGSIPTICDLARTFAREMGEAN

SMILES | Km [1] [µM] | colony formation on nucleoside analogue plates [2] | colony formation on nucleoside analogue plates [3] | colony formation on nucleoside analogue plates [4] | colony formation on nucleoside analogue plates [5] | colony formation on nucleoside analogue plates [6] | colony formation on nucleoside analogue plates [7] | colony formation on nucleoside analogue plates [8] | IC50 [9] [µM] | IC50 [10] [µM] | IC50 [11] [µM] | IC50 [12] [µM] | IC50 [13] [µM] | IC50 [14] [µM] | IC50 [15] [µM]
Cc1cn([C@H]2C[C@H](N=[N+]=[N-])[C@@H](CO)O2)c(=O)[nH]c1=O [AZT, 3' azido-3' thymidine] | 3.7 | ++ | - | ++ | + ((+) indicates that fewer (<20% those observed with pMCC) and generally smaller (~50°,% smaller diameter) colonies were observed as compared to control plates) | ++ | + ((+) indicates that fewer (<20% those observed with pMCC) and generally smaller (~50°,% smaller diameter) colonies were observed as compared to control plates) | + ((+) indicates that fewer (<20% those observed with pMCC) and generally smaller (~50°,% smaller diameter) colonies were observed as compared to control plates) |  |  |  |  |  |  | 
Nc1nc2c(ncn2COCCO)c(=O)[nH]1 [acyclovir] |  | ++ | + ((+) indicates that fewer (<20% those observed with pMCC) and generally smaller (~50°,% smaller diameter) colonies were observed as compared to control plates) | ++ | ++ | ++ | + ((+) indicates that fewer (<20% those observed with pMCC) and generally smaller (~50°,% smaller diameter) colonies were observed as compared to control plates) | + ((+) indicates that fewer (<20% those observed with pMCC) and generally smaller (~50°,% smaller diameter) colonies were observed as compared to control plates) | 0.26 | 14 | > 20 | 6 | 0.76 | 0.11 | > 20
